Laboratory results reported in patent publication US20190047966A1, “NOVEL COMPOUND AND PHARMACOLOGICALLY ACCEPTABLE SALT THEREOF” (MEIJI SEIKA PHARMA CO., LTD., priority 2016, published 2019).
Where a name gives a salt, the structure may show the parent alone.

Legend:
[1] = target: T1, human histamine H4 receptor (Homo sapiens, UniProt Q9H3N8); assay: Evaluation of Human H4 Receptor Affinity ([3H]histamine binding); conditions: inhibition constant Ki, CHO-K1 membrane preparation, read-out: Evaluation of H4 Receptor Affinity
T1 construct: purchased PerkinElmer Inc; host or cells: CHO-K1
Summary of the method: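 Radioligand displacement: compound competes with 8.2 nM [3H]histamine at recombinant human H4 receptor in CHO-K1 membranes (Tris-HCl 50 mM pH 7.4, EDTA 1.25 mM; 25 °C, 90 min), with filter-bound radioactivity counted. IC50 was converted to Ki via Cheng-Prusoff (Kd 5.7 nM); 1.0 μM histamine set nonspecific binding.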

[2] = target: T1, human histamine H4 receptor; assay: Evaluation of H4 Receptor Function ([35S]GTPγS binding); assay type: biochemical; conditions: [35S]GTPγS binding, CHO-K1 membrane, 0.1 μM histamine; read-out: Evaluation of H4 Receptor Function (IC50 value, antagonistic effect)
Protocol: The antagonistic effect was evaluated by the method described below. Membrane preparation from recombinant CHO-K1 cell expressing the human histamine H4 receptor (PerkinElmer Inc.), 10 μM GDP, 0.1 μM histamine, and the compounds dissolved in DMSO were reacted at 30° C. for 20 minutes in a buffering solution containing 20 mM HEPES, pH 7.4, 100 mM NaCl, 10 mM MgCl2, 1 mM DTT, and 1 mM EDTA on an assay plate. Thereafter, SPA beads (Amersham plc) were added, followed by incubation for 60 minutes, and further 0.3 nM [^35S]GTPγS (PerkinElmer Inc.) was added, followed by incubation for 30 minutes.

[3] = target: T2, human histamine H1 receptor (Homo sapiens, UniProt P35367); assay: Evaluation of Human H1 Receptor Affinity ([3H]pyrilamine binding); design: purchased PerkinElmer Inc; host or cells: CHO-K1; conditions: inhibition constant Ki, CHO-K1 membrane preparation
Summary of the method: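 Ki values are Cheng-Prusoff conversions of IC50 (Kd 1.1 nM) from radioligand displacement of 1.2 nM [3H]pyrilamine, with 1.0 μM pyrilamine defining nonspecific binding.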

[4] = target: T2, human histamine H1 receptor; assay: Evaluation of Human H1 Receptor Function (GeneBLAzer H1-NFAT-bla HEK 293T cells); assay type: cell-based; conditions: histamine 30 nM, read-out: Evaluation of H1 Receptor Function (IC50 value, antagonistic effect)
Protocol: Test Example 3: Evaluation of Human H1 Receptor Function
The antagonistic effect was evaluated by the method described below. GeneBLAzer® H1-NFAT-bla HEK 293T-cells (Invitrogen Corporation, recombinant cells expressing the human histamine H1 receptor) were incubated at 37° C. for 30 minutes in the presence of the test compounds dissolved in DMSO in a high glucose Dulbecco's Modified Eagle Medium (GlutaMAX, containing 10% fetal bovine serum, 100 μM nonessential amino acids, 25 mM HEPES, 100 U/mL penicillin, and 100 μg/mL streptomycin), and histamine was added such that the final concentration became 30 nM, followed by further incubation for 4.5 hours. Then, a mixture of LiveBLAzer™ FRET-B/G Loading Kit (Invitrogen Corporation) and Solution D (Invitrogen Corporation) was added, followed by leaving to stand at room temperature for 2 hours under shaded conditions. Thereafter, the fluorescence intensity was measured under two conditions of 400 nm/460 nm and 400 nm/535 nm (excitation light/fluorescence) by using a multilabel counter (EnVision: PerkinElmer Inc.). The 50% inhibitory concentration (IC50 value) was calculated in accordance with (measured value−blank measured value at 400 nm/460 nm)/(measured value−blank measured value at 400 nm/535 nm) of each test sample.

T2 sequence (P35367 whole entry): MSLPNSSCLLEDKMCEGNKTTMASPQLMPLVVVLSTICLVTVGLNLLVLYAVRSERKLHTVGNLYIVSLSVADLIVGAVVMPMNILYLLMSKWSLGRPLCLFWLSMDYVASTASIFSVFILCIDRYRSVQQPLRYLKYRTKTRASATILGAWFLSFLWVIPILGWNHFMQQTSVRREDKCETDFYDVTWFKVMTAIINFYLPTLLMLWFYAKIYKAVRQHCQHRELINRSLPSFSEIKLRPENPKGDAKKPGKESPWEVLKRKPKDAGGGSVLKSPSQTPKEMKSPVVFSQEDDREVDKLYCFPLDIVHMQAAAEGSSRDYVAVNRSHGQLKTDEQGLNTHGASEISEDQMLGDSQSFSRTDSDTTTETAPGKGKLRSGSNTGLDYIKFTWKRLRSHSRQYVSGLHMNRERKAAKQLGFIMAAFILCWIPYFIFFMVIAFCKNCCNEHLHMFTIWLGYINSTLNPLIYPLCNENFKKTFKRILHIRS

| Ki [1] [µM] | IC50 [2] [µM] | Ki [3] [µM] | IC50 [4] [µM] | Compound |
| --- | --- | --- | --- | --- |
| < 0.1 | 0.2 to 2 | < 0.1 | < 0.2 | Nc1nc2c(c(N3CCN(CCOC[C@H]4CC[C@@H](C(=O)O)CC4)CC3)n1)CCc1cc(OCc3ccc(Cl)cc3)ccc1-2 [Example 12, cis-4-((2-(4-(2-amino-8-((4-chlorobenzyl)oxy)-5,6-dihydrobenzo[h]quinazolin-4-yl)piperazin-1-yl)ethoxy)methyl)cyclohexane-1-carboxylic acid] |
| < 0.1 | 0.2 to 2 | < 0.1 | < 0.2 | Nc1nc2c(c(N3CCN(CCOCc4ccc(C(=O)O)o4)CC3)n1)CCc1cc(OCc3ccc(OC(F)(F)F)cc3)ccc1-2 [20(b), 5-((2-(4-(2-amino-8-((4-(trifluoromethoxy)benzyl)oxy)-5,6-dihydrobenzo[h]quinazolin-4-yl)piperazin-1-yl)ethoxy)methyl)furan-2-carboxylic acid] |
| < 0.1 | < 0.2 | < 0.1 | < 0.2 | Nc1nc2c(c(N3CCN(CCOCCOCC(=O)O)CC3)n1)CCc1cc(OCc3ccc(OC(F)(F)F)cc3)ccc1-2 [Example 143, 2-(2-(2-(4-(2-amino-8-((4-(trifluoromethoxy)benzyl)oxy)-5,6-dihydrobenzo[h]quinazolin-4-yl)piperazin-1-yl)ethoxy)ethoxy)acetic acid formate] |
| < 0.1 | 0.2 to 2 | < 0.1 | < 0.2 | Nc1nc2c(c(N3CCN(CCOCc4cccc(C(=O)O)n4)CC3)n1)CCc1cc(OCc3ccc(Cl)cc3)ccc1-2 [18(b), 6-((2-(4-(2-amino-8-((4-chlorobenzyl)oxy)-5,6-dihydrobenzo[h]quinazolin-4-yl)piperazin-1-yl)ethoxy)methyl)picolinic acid bis(trifluoroacetate)] |
| < 0.1 | < 0.2 | < 0.1 | < 0.2 | Nc1nc2c(c(N3CCN(CCO[C@H]4C[C@@H](C(=O)O)C4)CC3)n1)CCc1cc(OCc3ccc(OC(F)(F)F)cc3)ccc1-2 [23(b), cis-3-(2-(4-(2-amino-8-((4-(trifluoromethoxy)benzyl)oxy)-5,6-dihydrobenzo[h]quinazolin-4-yl)piperazin-1-yl)ethoxy)cyclobutane-1-carboxylic acid] |
| < 0.1 | 0.2 to 2 | < 0.1 | < 0.2 | CN1CCN(c2nc(N)nc3c2CCc2cc(NS(=O)(=O)c4ccc(OC(F)(F)F)cc4)ccc2-3)CC1 [Example 54, N-(2-amino-4-(4-methylpiperazin-1-yl)-5,6-dihydrobenzo[h]quinazolin-8-yl)-4-(trifluoromethoxy)benzenesulfonamide] |

Second part, the compound before the results:

| Compound | Ki [1] [µM] | IC50 [2] [µM] | Ki [3] [µM] | IC50 [4] [µM] |
| --- | --- | --- | --- | --- |
| Nc1nc2c(c(N3CCN(CCOCc4cccc(C(=O)O)c4)CC3)n1)CCc1cc(OCc3ccc(OC(F)(F)F)cc3)ccc1-2 [16(b), 3-((2-(4-(2-amino-8-((4-(trifluoromethoxy)benzyl)oxy)-5,6-dihydrobenzo[h]quinazolin-4-yl)piperazin-1-yl)ethoxy)methyl)benzoic acid] | < 0.1 | 0.2 to 2 | < 0.1 | < 0.2 |
| Nc1nc2c(c(N3CCN(CCO[C@H]4C[C@@H](CC(=O)O)C4)CC3)n1)CCc1cc(OCc3ccc(OC(F)(F)F)cc3)ccc1-2 [Example 36, cis-2-(3-(2-(4-(2-amino-8-((4-(trifluoromethoxy)benzyl)oxy)-5,6-dihydrobenzo[h]quinazolin-4-yl)piperazin-1-yl)ethoxy)cyclobutyl)acetic acid] | < 0.1 | < 0.2 | < 0.1 | < 0.2 |
| Nc1nc2c(c(N3CCN(CCOCCSCC(=O)O)CC3)n1)CCc1cc(OCc3ccc(OC(F)(F)F)cc3)ccc1-2 [Example 178, 2-((2-(2-(4-(2-amino-8-((4-(trifluoromethoxy)benzyl)oxy)-5,6-dihydrobenzo[h]quinazolin-4-yl)piperazin-1-yl)ethoxy)ethyl)thio)acetic acid] | < 0.1 | < 0.2 | < 0.1 | < 0.2 |
| Nc1nc2c(c(N3CCN(CCOCC4CC5(C4)CC(C(=O)O)C5)CC3)n1)CCc1cc(OCc3ccc(Cl)cc3)ccc1-2 (stereo not drawn) [Example 152, 6-((2-(4-(2-amino-8-((4-chlorobenzyl)oxy)-5,6-dihydrobenzo[h]quinazolin-4-yl)piperazin-1-yl)ethoxy)methyl)spiro[3.3]heptane-2-carboxylic acid hydrochloride] | < 0.1 | 0.2 to 2 | < 0.1 | < 0.2 |
| C[C@]1(C(=O)O)C[C@H](OCCN2CCN(c3nc(N)nc4c3CCc3cc(OCc5ccc(OC(F)(F)F)cc5)ccc3-4)CC2)C1 [Example 32, trans-3-(2-(4-(2-amino-8-((4-(trifluoromethoxy)benzyl)oxy)-5,6-dihydrobenzo[h]quinazolin-4-yl)piperazin-1-yl)ethoxy)-1-methylcyclobutane-1-carboxylic acid] | < 0.1 | < 0.2 | < 0.1 | < 0.2 |
| CN1CCN(c2nc(N)nc3c2CCc2cc(OCc4ccc(Cl)cc4)ccc2-3)CC1 [Example 1, 8-((4-chlorobenzyl)oxy)-4-(4-methylpiperazin-1-yl)-5,6-dihydrobenzo[h]quinazolin-2-amine] | < 0.1 | < 0.2 | < 0.1 | < 0.2 |
| Nc1nc2c(c(N3CCN(CCOCc4nn[nH]n4)CC3)n1)CCc1cc(OCc3ccc(Cl)cc3)ccc1-2 [Example 22, 4-(4-(2-((tetrazol-5-yl)methoxy)ethyl)piperazin-1-yl)-8-((4-chlorobenzyl)oxy)-5,6-dihydrobenzo[h]quinazolin-2-amine] | < 0.1 | 0.2 to 2 | < 0.1 | < 0.2 |
| CS(=O)(=O)NCCOCCOCCN1CCN(c2nc(N)nc3c2CCc2cc(OCc4ccc(Cl)cc4)ccc2-3)CC1 [Example 111, N-(2-(2-(2-(4-(2-amino-8-((4-chlorobenzyl)oxy)-5,6-dihydrobenzo[h]quinazolin-4-yl)piperazin-1-yl)ethoxy)ethoxy)ethyl)methanesulfonamide dihydrochoride] | < 0.1 | < 0.2 | < 0.1 | < 0.2 |
| Nc1nc2c(c(N3CCN(CCOC[C@H]4CC[C@H](C(=O)O)CC4)CC3)n1)CCc1cc(OCc3ccc(Cl)cc3)ccc1-2 [Example 13, trans-4-((2-(4-(2-amino-8-((4-chlorobenzyl)oxy)-5,6-dihydrobenzo[h]quinazolin-4-yl)piperazin-1-yl)ethoxy)methyl)cyclohexane-1-carboxylic acid] | < 0.1 | 0.2 to 2 | < 0.1 | < 0.2 |
| Nc1nc2c(c(N3CCN(CCOCc4ccc(C(=O)O)o4)CC3)n1)CCc1cc(OCc3ccc(Cl)cc3)ccc1-2 [127(b), 5-((2-(4-(2-amino-8-((4-chlorobenzyl)oxy)-5,6-dihydrobenzo[h]quinazolin-4-yl)piperazin-1-yl)ethoxy)methyl)furan-2-carboxylic acid] | 0.1 to 0.5 | 0.2 to 2 | < 0.1 | < 0.2 |
| Nc1nc2c(c(N3CCN(CCOCc4ccc(F)c(C(=O)O)c4)CC3)n1)CCc1cc(OCc3ccc(Cl)cc3)ccc1-2 [17(b), 5-((2-(4-(2-amino-8-((4-chlorobenzyl)oxy)-5,6-dihydrobenzo[h]quinazolin-4-yl)piperazin-1-yl)ethoxy)methyl)-2-fluorobenzoic acid] | < 0.1 | 0.2 to 2 | < 0.1 | < 0.2 |
| CN1CCN(c2nc(N)nc3c2CCc2cc(OCc4ccsc4)ccc2-3)CC1 [Example 3, 4-(4-methylpiperazin-1-yl)-8-(thiophen-3-ylmethoxy)-5,6-dihydrobenzo[h]quinazolin-2-amine] | < 0.1 | < 0.2 | < 0.1 | < 0.2 |
